We go through 19 compounds from patent US20260152487A1 (Sitryx Therapeutics Limited, priority 2021, published 2026).

One assay has as its target T1, recombinant human PKLR (Homo sapiens, UniProt P30613).
T1 construct: His (N); purchased R&D Systems
As to the kind of experiment: Human PKLR activation assay (Kinase-Glo Plus luminescent detection of generated ATP). In kind it is biochemical. Particulars: for EC50: read-out: hPKLR EC50; for Emax: read-out: hPKLR Emax (%). As for the experimental part: Compound activation of recombinant human PKLR pyruvate kinase activity was determined by biochemical assay. N-terminal His-tagged enzyme was sourced from R&D Systems and its substrates phosphoenolpyruvate (PEP) and ADP from Sigma-Aldrich and 2Bscientific Ltd, respectively. The Kinase-Glo® Plus luminescence assay was from Promega. All other reagents were from Sigma-Aldrich. Test Compounds were prepared as 10 mM DMSO stocks and dilution series prepared in DMSO for direct dilution into Assay Buffer comprising 50 mM imidazole, 50 mM KCl, 7 mM MgCl2, 0.01% Tween20, 0.05% BSA (pH 7.2).
Human PKLR was diluted into Assay Buffer to a final concentration of 5 pM. Enzyme-Assay Buffer mix was dispensed into 384-well shallow-well white-walled plates and Test Compounds added by acoustic dispense (Echo®, Labcyte Inc).
After 60 minutes' incubation on an orbital shaker (300 rpm, 26° C.), enzyme activity was quantified by the luminescent detection of generated ATP. Kinase-Glo® Plus reagent was added to each well and the plates incubated for a further 15 minutes on an orbital shaker in the dark (300 rpm, 26° C.) before luminescence measurement on a plate reader (PHERAstar® FSX, BMG Labtech).
Percentage activation was calculated by normalising […] signals to plate LOW (DMSO vehicle) and HIGH (5 μM TEPP-46) controls. EC50 and Emax values were determined from 4-parameter logistic fits of compound concentration-response curves.

Another assay deals with T2, recombinant human PKM2 (Homo sapiens, UniProt P14618).
T2 construct: His (N); purchased R&D Systems
As to the kind of experiment: Human PKM2 activation assay (Kinase-Glo Plus luminescent detection of generated ATP). In kind it is biochemical. The note with it: for Emax: read-out: hPKM2 Emax; for EC50: read-out: hPKM2 EC50. In short, it runs like this:
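N-His-tagged recombinant hPKM2 ([…]) with PEP and ADP was incubated with compound for 60 min at 26 °C, shaking, in 50 mM imidazole, 50 mM KCl, 7 mM MgCl2, 0.01% Tween20, 0.05% BSA, pH 7.2. ATP produced was read by Kinase-Glo Plus luminescence after 15 min.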

Setting [1] is: activation of recombinant human PKLR, 4-parameter logistic fit.
[2] abbreviates: percentage activation normalised to DMSO vehicle (LOW) and 5 μM TEPP-46 (HIGH) controls.
The mark [3] stands for this setting: percentage activation normalised to DMSO vehicle (LOW) and 5 μM TEPP-46 (HIGH).
[4] abbreviates: recombinant human PKM2 activation, 4-parameter logistic fit.

Molecules are shown by their SMILES. Like-named read-outs stand apart in the source and are kept apart here.

T2 sequence (P14618 2-531 limits assumed): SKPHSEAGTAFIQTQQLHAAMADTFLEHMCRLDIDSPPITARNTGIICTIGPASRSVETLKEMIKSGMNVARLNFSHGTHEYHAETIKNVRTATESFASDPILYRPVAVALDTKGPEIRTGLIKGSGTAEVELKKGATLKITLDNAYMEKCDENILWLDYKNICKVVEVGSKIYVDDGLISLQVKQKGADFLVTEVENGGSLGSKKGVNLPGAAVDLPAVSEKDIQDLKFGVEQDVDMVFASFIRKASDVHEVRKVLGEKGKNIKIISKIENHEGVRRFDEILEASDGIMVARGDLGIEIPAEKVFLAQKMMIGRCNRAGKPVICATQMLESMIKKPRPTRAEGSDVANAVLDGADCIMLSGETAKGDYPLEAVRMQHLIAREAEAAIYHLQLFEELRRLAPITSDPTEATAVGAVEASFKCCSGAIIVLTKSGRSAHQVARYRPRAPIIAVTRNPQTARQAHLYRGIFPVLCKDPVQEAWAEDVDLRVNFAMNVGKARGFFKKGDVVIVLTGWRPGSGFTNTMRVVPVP
T1 sequence (P30613 whole entry): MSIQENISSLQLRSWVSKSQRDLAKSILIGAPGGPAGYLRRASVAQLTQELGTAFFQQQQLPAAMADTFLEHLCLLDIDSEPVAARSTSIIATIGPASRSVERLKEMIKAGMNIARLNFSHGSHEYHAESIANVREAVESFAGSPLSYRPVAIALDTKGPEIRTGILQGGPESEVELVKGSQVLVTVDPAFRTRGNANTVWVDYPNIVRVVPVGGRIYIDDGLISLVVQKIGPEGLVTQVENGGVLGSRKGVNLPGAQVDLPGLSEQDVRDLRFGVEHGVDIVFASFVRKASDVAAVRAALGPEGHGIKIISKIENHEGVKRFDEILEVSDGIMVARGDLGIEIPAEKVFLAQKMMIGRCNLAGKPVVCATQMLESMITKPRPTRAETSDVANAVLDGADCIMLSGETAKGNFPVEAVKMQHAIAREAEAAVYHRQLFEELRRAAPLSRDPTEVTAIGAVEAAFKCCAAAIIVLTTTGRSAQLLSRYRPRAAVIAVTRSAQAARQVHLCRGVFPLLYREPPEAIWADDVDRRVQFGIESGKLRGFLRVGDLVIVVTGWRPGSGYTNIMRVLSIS

By EC50 is commonly meant the concentration giving half of the maximal effect. In general, Emax refers to the size of the effect at its maximum, as opposed to the concentration needed. As for `O=c1c2ccc(S(=O)(=O)c3cnn(CCO)c3)cc2cnn1Cc1cc[nH]n1` [Example 241, 2-((1H-pyrazol-3-yl)methyl)-6-((1-(2-hydroxyethyl)-1H-pyrazol-4-yl)sulfonyl)phthalazin-1(2H)-one], the EC50 at recombinant human PKLR (setting [1]) worked out at 27.5 nM; at recombinant human PKM2 (setting [4]), 118 nM. The Emax on recombinant human PKLR (setting [2]) worked out at 129%; at recombinant human PKM2 (setting [3]) it was 106%.

As for `Cn1ccc(Cn2ncc3cc(S(=O)(=O)c4ccccc4)c(F)cc3c2=O)n1` [Example 242, 7-fluoro-2-((1-methyl-1H-pyrazol-3-yl)methyl)-6-(phenylsulfonyl)phthalazin-1(2H)-one], the results for the 50% effective concentration (EC50) at recombinant human PKLR (setting [1]) and at recombinant human PKM2 (setting [4]) were 22.2 nM and 102 nM, respectively. The figures for the Emax at recombinant human PKLR (setting [2]) and on recombinant human PKM2 (setting [3]) were 134% and 107%, respectively.

As to `Cn1ccc(Cn2ncc3cc(S(=O)(=O)c4ccccc4)c(NCCO)cc3c2=O)n1` [Example 244, 7-((2-hydroxyethyl)amino)-2-((1-methyl-1H-pyrazol-3-yl)methyl)-6-(phenylsulfonyl)phthalazin-1(2H)-one], the EC50 is 27.4 nM on recombinant human PKLR (setting [1]) and 206 nM at recombinant human PKM2 (setting [4]). Besides, the Emax at recombinant human PKLR (setting [2]) was found to be 123%; at recombinant human PKM2 (setting [3]), 105%.

Turning to `Cc1nc(Cn2ncc3cc(S(=O)(=O)c4cn[nH]c4)ccc3c2=O)ccc1F` [Example 251, 6-((1H-pyrazol-4-yl)sulfonyl)-2-((5-fluoro-6-methylpyridin-2-yl)methyl)phthalazin-1(2H)-one], the EC50 on recombinant human PKLR (setting [1]) turned out to be 11.3 nM; at recombinant human PKM2 (setting [4]) it was 111 nM. For the same compound, the values for the Emax at recombinant human PKLR (setting [2]) and on recombinant human PKM2 (setting [3]) were 111% and 116%, respectively.

On to `Cc1ccc(F)c(Cn2ncc3cc(S(=O)(=O)c4cn[nH]c4)ccc3c2=O)n1` [Example 252, 6-((1H-pyrazol-4-yl)sulfonyl)-2-((3-fluoro-6-methylpyridin-2-yl)methyl)phthalazin-1(2H)-one], for which the EC50 amounted to 18 nM at recombinant human PKLR (setting [1]) and 107 nM on recombinant human PKM2 (setting [4]). For the same compound, the figures for the Emax at recombinant human PKLR (setting [2]) and at recombinant human PKM2 (setting [3]) were 120% and 105%, respectively.

For `O=c1c2ccc(S(=O)(=O)c3cn[nH]c3)cc2cnn1Cc1ccc2c(n1)CCO2` [Example 253, 6-(1H-pyrazol-4-ylsulfonyl)-2-((2,3-dihydrofuro[3,2-b]pyridin-5-yl)methyl)phthalazin-1(2H)-one], the EC50 worked out at 4.32 nM at recombinant human PKLR (* data from repeat experiments), 5.59 nM at recombinant human PKLR (setting [1]), 21.6 nM on recombinant human PKM2 (data from repeat experiments (*)) and 20.1 nM at recombinant human PKM2 (setting [4]). Besides, the maximal response (Emax) was 118% at recombinant human PKLR (line of the repeat experiments (EC50 marked *)), 107% at recombinant human PKLR (setting [2]), 105% at recombinant human PKM2 (line of the repeat experiment (EC50 marked *)) and 104% on recombinant human PKM2 (setting [3]).

Consider `O=c1c2ccc(S(=O)(=O)c3ccc4occc4n3)cc2cnn1Cc1ccn(C2CC2)n1` [Example 256, 2-((1-cyclopropyl-1H-pyrazol-3-yl)methyl)-6-(furo[3,2-b]pyridin-5-ylsulfonyl)phthalazin-1(2H)-one], for which the EC50 was found to be 3.33 nM at recombinant human PKLR (setting [1]) and 31.7 nM at recombinant human PKM2 (setting [4]). Moreover, the Emax amounted to 136% at recombinant human PKLR (setting [2]) and 95.5% at recombinant human PKM2 (setting [3]).

As to `O=c1c2ccc(S(=O)(=O)c3cc4c(cn3)OCC4)cc2cnn1Cc1cc[nH]n1` [Example 258, 2-((1H-pyrazol-3-yl)methyl)-6-((2,3-dihydrofuro[2,3-c]pyridin-5-yl)sulfonyl)phthalazin-1(2H)-one], the values for the EC50 on recombinant human PKLR (setting [1]) and on recombinant human PKM2 (setting [4]) were 15.3 nM and 88.8 nM, respectively. The Emax on recombinant human PKLR (setting [2]) was 142%; on recombinant human PKM2 (setting [3]), 108%.

On to `Cc1cccc(Cn2ncc3cc(S(=O)(=O)c4cnn(C5CC5)c4)ccc3c2=O)n1` [Example 259, 6-((1-cyclopropyl-1H-pyrazol-4-yl)sulfonyl)-2-((6-methylpyridin-2-yl)methyl)phthalazin-1(2H)-one], for which the EC50 on recombinant human PKLR (setting [1]) was found to be 13.1 nM; at recombinant human PKM2 (setting [4]) it was 46.1 nM. The values for the Emax on recombinant human PKLR (setting [2]) and on recombinant human PKM2 (setting [3]) were 123% and 96.7%, respectively.

Turning to `O=c1c2cc(NCCO)c(S(=O)(=O)c3ccccc3)cc2cnn1Cc1ccn(C2CC2)n1` [Example 265, 2-((1-cyclopropyl-1H-pyrazol-3-yl)methyl)-7-((2-hydroxyethyl)amino)-6-(phenylsulfonyl)phthalazin-1(2H)-one], the EC50 on recombinant human PKLR (setting [1]) turned out to be 13.5 nM; at recombinant human PKM2 (setting [4]), 134 nM. The Emax at recombinant human PKLR (setting [2]) is 127%; at recombinant human PKM2 (setting [3]), 114%.

Turning to `Cc1cccc(Cn2ncc3cc(S(=O)(=O)c4cnn(C5COC5)c4)ccc3c2=O)n1` [Example 270, 2-((6-methylpyridin-2-yl)methyl)-6-((1-(oxetan-3-yl)-1H-pyrazol-4-yl)sulfonyl)phthalazin-1(2H)-one], the EC50 was determined as 108 nM at recombinant human PKLR (setting [1]) and 138 nM on recombinant human PKM2 (setting [4]). Besides, the results for the Emax on recombinant human PKLR (setting [2]) and at recombinant human PKM2 (setting [3]) were 136% and 103%, respectively.

Consider `COc1ccc(Cn2ncc3cc(S(=O)(=O)c4cnn(CCO)c4)ccc3c2=O)cn1` [Example 271, 6-((1-(2-hydroxyethyl)-1H-pyrazol-4-yl)sulfonyl)-2-((6-methoxypyridin-3-yl)methyl)phthalazin-1(2H)-one], for which the results for the EC50 at recombinant human PKLR (setting [1]) and at recombinant human PKM2 (setting [4]) were 26.4 nM and 54.5 nM, respectively. Besides, the Emax at recombinant human PKLR (setting [2]) was 119%; on recombinant human PKM2 (setting [3]), 81.3%.

Regarding `O=c1c2ccc(S(=O)(=O)c3cnn(CCO)c3)cc2cnn1Cc1ccn(C2CC2)n1` [Example 272, 2-((1-cyclopropyl-1H-pyrazol-3-yl)methyl)-6-((1-(2-hydroxyethyl)-1H-pyrazol-4-yl)sulfonyl)phthalazin-1(2H)-one], the EC50 at recombinant human PKLR (setting [1]) is 39.1 nM; on recombinant human PKM2 (setting [4]), 93.4 nM. For the same compound, the Emax came out at 124% on recombinant human PKLR (setting [2]) and 91.3% at recombinant human PKM2 (setting [3]).

In the case of `Cn1cc(S(=O)(=O)c2ccc3c(=O)n(Cc4cccc(C5CC5)n4)ncc3c2)cn1` [Example 275, 2-((6-cyclopropylpyridin-2-yl)methyl)-6-((1-methyl-1H-pyrazol-4-yl)sulfonyl)phthalazin-1(2H)-one], the EC50 on recombinant human PKLR (setting [1]) worked out at 19.5 nM; at recombinant human PKM2 (setting [4]), 50.5 nM. Besides, the Emax on recombinant human PKLR (setting [2]) was 120%; on recombinant human PKM2 (setting [3]), 95.9%.

As to `O=c1c2ccc(S(=O)(=O)c3cn[nH]c3)cc2cnn1Cc1cccc(C2CC2)n1` [Example 287, 6-((1H-pyrazol-4-yl)sulfonyl)-2-((6-cyclopropylpyridin-2-yl)methyl)phthalazin-1(2H)-one], the EC50 on recombinant human PKLR (setting [1]) amounted to 13 nM; on recombinant human PKM2 (setting [4]), 45.2 nM. Further, the Emax on recombinant human PKLR (setting [2]) was found to be 110%; at recombinant human PKM2 (setting [3]), 103%.

Consider `O=c1c2ccc(S(=O)(=O)c3cn[nH]c3)cc2cnn1Cc1ccc2occc2n1` [Example 298, 6-((1H-pyrazol-4-yl)sulfonyl)-2-(furo[3,2-b]pyridin-5-ylmethyl)phthalazin-1(2H)-one], for which the EC50 stood at 2.65 nM at recombinant human PKLR (setting [1]) and 19.6 nM at recombinant human PKM2 (setting [4]). Further, the Emax on recombinant human PKLR (setting [2]) came to 118%; on recombinant human PKM2 (setting [3]) it was 108%.

On to `O=c1c2ccc(S(=O)(=O)c3cnn(CCO)c3)cc2cnn1Cc1ccc2c(n1)CCO2` [Example 309], for which the EC50 on recombinant human PKLR (setting [1]) was determined as 6.58 nM; at recombinant human PKM2 (setting [4]) it was 50.4 nM.

Consider `Cc1[nH]nc(Cn2ncc3cc(S(=O)(=O)c4cn[nH]c4)ccc3c2=O)c1Cl` [Example 314], for which the EC50 on recombinant human PKLR (setting [1]) came out at 4.27 nM; on recombinant human PKM2 (setting [4]), 46.3 nM. In addition, the results for the Emax on recombinant human PKLR (setting [2]) and on recombinant human PKM2 (setting [3]) were 114% and 94.9%, respectively.

For `Cc1nc(S(=O)(=O)c2ccc3c(=O)n(Cc4cc[nH]n4)ncc3c2)cs1` [Example 320], the EC50 worked out at 14.8 nM at recombinant human PKLR (setting [1]) and 120 nM at recombinant human PKM2 (setting [4]). The results for the Emax on recombinant human PKLR (setting [2]) and on recombinant human PKM2 (setting [3]) were 131% and 99.6%, respectively.
